# PubChem BioAssay AID1918935 (Molecular Pharmacology Branch, DTP, NCI, 2023)
# Values joined by “and” are separate entries in the source; they are usually repeats but may differ in a detail not shown here. Equal entries are not always repeated.
# Tested on: 324938-238-R-J1-PDC complex spheroid viability
# Test: Anticancer human tumor 324938-238-R-J1-PDC patient-derived bladder carcinoma cell line growth inhibition
# Conditions: for viability, T/C: stronger effect = lower value; for IC50: curve of compound
# Description: Multicellular complex tumor spheroid response to LSD1 Inhibitor Iadademstat in combination with a variety of drugs and investigational agents in selected tumor cell lines
# The current study was undertaken to assess response to LSD1 inhibitors in combination with standard-of-care drugs and investigational agents in solid tumor complex spheroid models as well as in the K-562 leukemia. Complex spheroids include a stromal component modeled by human endothelial cells (HUVEC) and fibroblasts modeled by human mesenchymal stem cells (MSCs). The concentration ranges selected for each drug and investigational agent were based upon clinically achievable concentrations if the clinical Cmax of the agent was known.
# Compounds. The drugs and investigational agents used in this study are listed on Table 1. All of the agents used, including staurosporine (NSC755774) and gemcitabine (NSC613327), were obtained from the Developmental Therapeutics Program, NCI. FDA-approved anticancer drugs are available from the NCI at http://dtp.nci.nih.gov/branches/dscb/oncology_drugset_explanation.html. Drugs and investigational agents were >95% pure by proton nuclear magnetic resonance (NMR) and liquid chromatography/mass spectrometry (LC/MS). Stock solutions were prepared at 400x in DMSO, stored at -70 degrees C, and diluted in fresh medium prior to their use. The final concentration of DMSO in cell culture wells never exceeded 0.25% (v/v). The FDA-approved anticancer drug set is available from the Developmental Therapeutics Program at https://dtp.cancer.gov/organization/dscb/obtaining/available_plates.htm. All drugs and investigational agents were tested over a range starting from a high concentration at or near the clinical Cmax and decreasing in half-log increments. If the clinical Cmax for an agent had not been determined, the highest concentration tested was 10 microM.
# Cell Lines. The patient-derived cancer cell (PDC) lines: 292921-168-R-J2-PDC, K24384-001-R-PDC, and 521955-158-R2-J5-PDC pancreatic carcinomas, 556581-035-R-J1 ovarian carcinoma, 324938-238-R-J1-PDC, 855422-203-R-J1-PDC and 883617-216-R-J1-PDC urothelial bladder carcinomas, 743489-274-T-PDC renal cell carcinoma, 138582-R-J1 Merkel cell tumor, K60290-347-R-J1 and K57222-313-R-J1-PDC glioblastomas, 653999-131-R-J2-PDC, LG0703-F948-PDC, and 349418-098-R-PDC non-small cell lung carcinomas, 885512-296-R-J2-PDC, 171881-019-R-J1-PDC breast carcinomas and 186277-243-T-J2-PDC and 233499-124-R-J2-PDC colon carcinomas were obtained from the NCI Patient-Derived Models Repository (PDMR, https://pdmr.cancer.gov). The established cell lines NCI/ADR-RES (RRID:CVCL_14520 and OVCAR-5 (RRID:CVCL_1628) ovarian carcinomas, 786-O (RRID:CVCL_1051) and A498 (RRID:CVCL_A498) renal cell carcinoma, NCI-H211 (ATCC, cat. CRL-5824; RRID:CVCL_1529), NCI-H196 (ATCC, cat. CRL-5823, RRID:CVCL_1509), SW 1271 (ATCC, cat. CRL-2177, RRID:CVCL_1716) and NCI-H1876 (ATCC, cat. CRL-5902, RRID:CVCL_1503) small cell lung carcinomas, MDA-MB-231 (RRID:CVCL_0062) and MDA-MB-468 (RRID:CVCL_0419)breast carcinomas (10-12). Pooled donor human umbilical vein endothelial cells (HUVEC, Lonza, cat. CC-2519) and human mesenchymal stem cells (hMSC, Lonza, cat. PT-2501) were purchased from Lonza (Walkersville, MD).
# Cell Culture. All cells were maintained in an incubator at 37 degrees C and 5% CO2 with 95% humidity. The PDC lines were cultured according to standard operating procedures established by the NCI PDMR (https://pdmr.cancer.gov). Briefly all PDCs were thawed and cultured in Matrigel-coated flasks prepared with a working solution of 1X Ham's F-12 nutrient mix, without supplementation (Invitrogen, Waltham, MA, cat. 11765054), 100 U/mL penicillin-streptomycin (Invitrogen, cat. 15140122), and 2.5% Matrigel (Corning Inc., Corning, NY, cat. 354248) for the first three passages. […]
# 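Also: spheroids also contain HUVEC and human MSCs and agents combined with iadademstat; spheroids exposed to agents for 7 days before readout.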
SMILES,"viability, T/C (compound 0.000316 µM)","viability, T/C (compound 0.001 µM)","viability, T/C (compound 0.00316 µM)","viability, T/C (compound 0.01 µM)","viability, T/C (compound 0.0316 µM)","viability, T/C (compound 0.1 µM)",IC50,"viability, T/C (compound 0.00949 µM)","viability, T/C (compound 0.03 µM)","viability, T/C (compound 0.0949 µM)","viability, T/C (compound 0.3 µM)","viability, T/C (compound 0.949 µM)","viability, T/C (compound 3 µM)","viability, T/C (compound 0.000949 µM)","viability, T/C (compound 0.003 µM)","viability, T/C (compound 0.316 µM)","viability, T/C (compound 1 µM)"
Cn1ncnc1C1c2n[nH]c(=O)c3cc(F)cc(c23)NC1c1ccc(F)cc1 (stereo unspecified),99.3% and 106%,102% and 99.5%,99.7% and 90.2%,92.3% and 94.8%,82.6% and 76%,68.6% and 58.2%,> 100 nM,,,,,,,,,,
NS(=O)(=O)OCC1CC(n2ccc3c(NC4CCc5ccccc54)ncnc32)CC1O (stereo unspecified),,,,,,,326 nM and 256 nM,103% and 106%,106% and 112%,93.4% and 94%,54.2% and 43.8%,12.5% and 10.2%,15.6% and 11.9%,,,,
Nc1ccccc1NC(=O)c1ccc(CNC(=O)OCc2cccnc2)cc1,,,,,,,555 nM and 507 nM,112% and 111%,107% and 111%,96.8% and 88.3%,63.3% and 59.8%,37.7% and 37.5%,9.59% and 7.01%,,,,
Nc1ccn(C2OC(CO)C(O)C2(F)F)c(=O)n1 (stereo unspecified),,,,,,,< 0.949 nM,7.58% and 8.65%,6.97% and 8.11%,5.95% and 6.14%,5.04% and 6.97%,,,11.4% and 15.4%,8.21% and 9.09%,,
Nc1ncn(C2CC(O)C(CO)O2)c(=O)n1 (stereo unspecified),,,98.2% and 98.1%,90.8% and 96.7%,81% and 89.9%,75.9% and 69.5%,927 nM and 722 nM,,,,,,,,,62.2% and 57.2%,48.6% and 46.9%
Nc1ncn(C2CC(O)C(CO)S2)c(=O)n1 (stereo unspecified),,,,,,,32.8 nM and 24.8 nM,72.2% and 69.6%,51.5% and 46.5%,33.2% and 27.5%,22.2% and 17.4%,,,97.4% and 106%,88.2% and 90.7%,,
O=C(C=Cc1cccc(S(=O)(=O)Nc2ccccc2)c1)NO,,,,,,,273 nM and 237 nM,95.5% and 107%,89.1% and 92.1%,71% and 70%,46.1% and 42.8%,26.1% and 24.2%,4.98% and 3.24%,,,,
O=C(C=Cn1cnc(-c2cc(C(F)(F)F)cc(C(F)(F)F)c2)n1)NNc1cnccn1,,,85.4% and 60.8%,44.7% and 28.6%,17.7% and 14.8%,7.73% and 4.52%,8.59 nM and 4.69 nM,,,,,,,,,4.23% and 3.45%,2.35% and 1.64%
